Data from US10106538B2, “Inhibitors of protein kinases” (PRINCETON DRUG DISCOVERY INC, priority 2015, dated 2018).
Like-named read-outs stand apart in the source and are kept apart here.

Tests used:
PDGFRα(V561D) = biological target: T1, PDGFRα(V561D) (Homo sapiens, UniProt P16234, V561D); experiment: Off-chip Mobility Shift Assay (MSA) kinase inhibition; format: biochemical; details: inhibitor concentration 0.01 μM
T1 construct: purchased Carna Biosciences
Description: (§1) Off-chip Mobility Shift Assay (MSA) by Cama Biosciences, Inc (Natick, Mass.) a used for measuring the kinase activity and inhibition. • 1) The 5 μL of x4 compound solution, 5 μL of x4 Substrate/ATP/Metal solution, and 10 μL of x2 kinase solution were prepared with assay buffer (20 mM HEPES, 0.01% Triton X100, 2 mM DTT, pH 7.5) and mixed and incubated in a well of polypropylene 384 well microplate for 1 or 5 hour(s)* at room temperature. (*; depending on kinase) • 2) 70 μL of Termination Buffer (QuickScout Screening Assist A; Cama Biosciences) was added to the welt • 3) The reaction mixture was applied to LabChip system (Perkin Elmer), and the product and substrate peptide peaks were separated and quantitated. • 4) The kinase reaction was evaluated by the product ratio calculated from peak heights of product (P) and substrate (S) peptides (P/(P+S)). • 5) The reaction conditions were followed according to assay protocols of Ca n Biosciences, Inc (BMA 3F, 1-5-5 Minatojima-Minamimachi, Chuo-ku, Kobe 650-0047, Japan; www.carnabio.com). • 6 Data analysis: The readout value of reaction control (complete reaction mixture) was set as a 0% inhibition, and the readout value of background (Enzyme (−)) was set as a 100% inhibition, then the percent inhibition of each test solution was calculated, […]

PDGFRα(T674I) = biological target: T2, PDGFRα(T674I) (Homo sapiens, UniProt P16234, T674I); experiment: as above; format: biochemical; details: inhibitor concentration 0.01 μM
T2 construct: purchased Carna Biosciences
T2 sequence (P16234 24-1089 T674I): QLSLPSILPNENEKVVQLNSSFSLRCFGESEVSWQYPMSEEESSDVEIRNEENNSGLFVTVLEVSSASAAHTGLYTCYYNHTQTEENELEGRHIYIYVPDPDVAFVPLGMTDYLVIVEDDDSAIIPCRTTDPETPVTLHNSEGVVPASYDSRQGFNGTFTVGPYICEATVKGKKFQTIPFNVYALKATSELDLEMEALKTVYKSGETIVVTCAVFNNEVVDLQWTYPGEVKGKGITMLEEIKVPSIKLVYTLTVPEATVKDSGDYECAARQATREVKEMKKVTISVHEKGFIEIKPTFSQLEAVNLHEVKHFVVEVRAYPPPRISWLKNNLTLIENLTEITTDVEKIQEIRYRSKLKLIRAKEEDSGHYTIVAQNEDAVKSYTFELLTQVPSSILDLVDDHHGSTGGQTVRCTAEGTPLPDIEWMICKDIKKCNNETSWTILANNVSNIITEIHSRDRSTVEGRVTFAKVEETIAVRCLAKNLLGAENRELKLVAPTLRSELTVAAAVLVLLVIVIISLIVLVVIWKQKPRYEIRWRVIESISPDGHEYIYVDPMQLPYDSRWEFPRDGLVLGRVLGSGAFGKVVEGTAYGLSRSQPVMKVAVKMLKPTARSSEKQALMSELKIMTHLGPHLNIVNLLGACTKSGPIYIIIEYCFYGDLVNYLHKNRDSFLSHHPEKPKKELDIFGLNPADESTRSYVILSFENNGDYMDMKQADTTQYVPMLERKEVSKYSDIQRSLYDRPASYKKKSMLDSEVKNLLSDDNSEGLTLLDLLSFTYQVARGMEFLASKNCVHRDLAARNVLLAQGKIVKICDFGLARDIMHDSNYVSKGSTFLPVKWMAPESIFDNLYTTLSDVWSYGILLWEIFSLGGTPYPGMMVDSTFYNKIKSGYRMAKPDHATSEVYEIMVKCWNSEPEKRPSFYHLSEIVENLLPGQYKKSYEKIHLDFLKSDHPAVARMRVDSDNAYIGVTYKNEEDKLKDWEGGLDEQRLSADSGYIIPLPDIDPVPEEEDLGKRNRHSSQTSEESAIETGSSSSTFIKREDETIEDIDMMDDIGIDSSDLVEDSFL
Description: as §1

PDGFRα(D842V) = biological target: T3, PDGFRα(D842V) (Homo sapiens, UniProt P16234, D842V); experiment: as above; format: biochemical; details: inhibitor concentration 0.01 μM
T3 construct: purchased Carna Biosciences
T3 sequence (P16234 24-1089 D842V): as the sequence (P16234 24-1089 T674I) above, with I651T, D819V counted along it
Description: as §1

[1] = system: breast cancer cell line T-47D; experiment: Cell growth assay with breast cancer cell line T-47D; format: cell-based; details: T-47D cells, PrestoBlue Cell Viability reagent, read-out: IC50 inhibition of cell growth
Description: […] of the complete medium was then gently dispersed over the surface of the cell layer for several times. The cell concentration was adjusted to 1×10^4 cells/mL with the complete medium. A 100 μL aliquot of the cell suspension was added to the well of a 96-well plate, and the plate was incubated overnight at 37° C. under 5% CO2 with saturated humidity. On the next day, the medium in each well was aspirated and replaced with a 100 μL aliquot of pre-warmed complete medium at 37° C. in the presence or absence of the test compounds at various concentrations from 0-100 μM. The test compounds were dissolved in DMSO, and the final DMSO concentration in the cell culture was no more than 1%. The plate was incubated for 72 hours at 37° C. under 5% CO2 with saturated humidity. At end of the cell culture a 10 μL aliquot of PrestoBlue® Cell Viability reagent (ThermoFisher Scientific) was added into the well and the plate was incubated at 37° C. for 30 min. The absorption at 570 and 600 nm were measured with a SpectraMax Microplate reader (Molecular Devices), The absorbance at […] was normalized to that at 600 nm.

BRK = biological target: T4, BRK (Homo sapiens, UniProt Q13882); experiment: Off-chip Mobility Shift Assay (MSA) kinase inhibition; format: biochemical; details: inhibitor concentration 0.01 μM
T4 construct: purchased Carna Biosciences
T4 sequence (Q13882 whole entry): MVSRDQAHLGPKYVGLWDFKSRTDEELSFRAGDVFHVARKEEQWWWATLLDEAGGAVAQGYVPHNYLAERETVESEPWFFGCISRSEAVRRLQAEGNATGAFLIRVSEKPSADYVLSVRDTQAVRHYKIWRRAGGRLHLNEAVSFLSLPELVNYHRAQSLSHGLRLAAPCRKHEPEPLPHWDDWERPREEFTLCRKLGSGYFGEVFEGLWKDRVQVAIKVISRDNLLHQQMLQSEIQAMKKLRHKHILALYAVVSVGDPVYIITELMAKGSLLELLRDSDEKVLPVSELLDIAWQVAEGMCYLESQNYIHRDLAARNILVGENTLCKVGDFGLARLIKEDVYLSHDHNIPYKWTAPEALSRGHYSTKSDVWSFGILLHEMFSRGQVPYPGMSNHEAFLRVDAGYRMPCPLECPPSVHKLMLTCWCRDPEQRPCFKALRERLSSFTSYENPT
Description: (§2) Off-chip Mobility Shift Assay (MSA) by Cama Biosciences, Inc (Natick, Mass.) a used for measuring the kinase activity and inhibition. • 1) The 5 μL of x4 compound solution, 5 μL of x4 Substrate/ATP/Metal solution, and 10 μL of x2 kinase solution were prepared with assay buffer (20 mM HEPES, 0.01% Triton X100, 2 mM DTT, pH 7.5) and mixed and incubated in a well of polypropylene 384 well microplate for 1 or 5 hour(s)* at room temperature.

SRC = biological target: T5, SRC (Homo sapiens, UniProt P12931); experiment: as above; format: biochemical; details: inhibitor concentration 0.01 μM
T5 construct: purchased Carna Biosciences
Description: as §2

BRAF(V600E) = biological target: T6, BRAF(V600E) (Homo sapiens, UniProt P15056, V600E); experiment: as above; format: biochemical; details: inhibitor concentration 0.01 μM
T6 construct: purchased Carna Biosciences
Description: as §2

PDGFRα = biological target: T7, PDGFRα (Homo sapiens, UniProt P16234); experiment: as above; format: biochemical; details: inhibitor concentration 0.01 μM
T7 construct: purchased Carna Biosciences
T7 sequence (P16234 24-1089): as the sequence (P16234 24-1089 T674I) above, with I651T counted along it
Description: as §2

KIT(V560G) = biological target: T8, KIT(V560G) (Homo sapiens, UniProt P10721, V560G); experiment: as above; format: biochemical; details: inhibitor concentration 0.01 μM
T8 construct: purchased Carna Biosciences
T8 sequence (P10721 26-976 V560G): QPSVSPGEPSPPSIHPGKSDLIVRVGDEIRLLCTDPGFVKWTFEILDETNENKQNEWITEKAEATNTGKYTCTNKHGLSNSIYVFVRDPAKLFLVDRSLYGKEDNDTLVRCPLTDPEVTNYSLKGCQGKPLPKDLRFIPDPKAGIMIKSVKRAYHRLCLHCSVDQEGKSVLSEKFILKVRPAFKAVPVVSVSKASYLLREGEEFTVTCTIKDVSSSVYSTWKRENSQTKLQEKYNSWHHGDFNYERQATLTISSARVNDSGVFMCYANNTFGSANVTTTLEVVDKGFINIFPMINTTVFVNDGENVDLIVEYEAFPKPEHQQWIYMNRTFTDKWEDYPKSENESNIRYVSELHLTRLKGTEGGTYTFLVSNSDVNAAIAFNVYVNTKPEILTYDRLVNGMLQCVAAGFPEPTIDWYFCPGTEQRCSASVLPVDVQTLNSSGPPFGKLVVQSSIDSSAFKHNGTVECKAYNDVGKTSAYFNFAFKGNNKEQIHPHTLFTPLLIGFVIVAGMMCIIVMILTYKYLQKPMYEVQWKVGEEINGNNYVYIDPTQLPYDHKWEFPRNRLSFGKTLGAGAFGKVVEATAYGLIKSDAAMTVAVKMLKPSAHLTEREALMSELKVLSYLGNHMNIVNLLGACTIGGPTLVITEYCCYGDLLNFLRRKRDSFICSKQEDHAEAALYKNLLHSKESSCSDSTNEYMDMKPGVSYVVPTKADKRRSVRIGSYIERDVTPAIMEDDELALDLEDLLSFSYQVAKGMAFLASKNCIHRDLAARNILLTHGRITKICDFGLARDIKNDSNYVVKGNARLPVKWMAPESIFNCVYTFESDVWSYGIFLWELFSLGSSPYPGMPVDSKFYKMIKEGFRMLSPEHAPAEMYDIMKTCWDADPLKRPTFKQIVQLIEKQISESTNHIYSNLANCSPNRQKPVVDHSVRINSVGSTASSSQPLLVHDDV
Description: as §2

KIT = biological target: T9, KIT (Homo sapiens, UniProt P10721); experiment: as above; format: biochemical; details: inhibitor concentration 0.01 μM
T9 construct: purchased Carna Biosciences
T9 sequence (P10721 26-976): as the sequence (P10721 26-976 V560G) above, with G535V counted along it
Description: as §2

JAK1 = biological target: T10, JAK1 (Homo sapiens, UniProt P23458); experiment: as above; format: biochemical; details: inhibitor concentration 0.01 μM
T10 construct: purchased Carna Biosciences
T10 sequence (P23458 whole entry): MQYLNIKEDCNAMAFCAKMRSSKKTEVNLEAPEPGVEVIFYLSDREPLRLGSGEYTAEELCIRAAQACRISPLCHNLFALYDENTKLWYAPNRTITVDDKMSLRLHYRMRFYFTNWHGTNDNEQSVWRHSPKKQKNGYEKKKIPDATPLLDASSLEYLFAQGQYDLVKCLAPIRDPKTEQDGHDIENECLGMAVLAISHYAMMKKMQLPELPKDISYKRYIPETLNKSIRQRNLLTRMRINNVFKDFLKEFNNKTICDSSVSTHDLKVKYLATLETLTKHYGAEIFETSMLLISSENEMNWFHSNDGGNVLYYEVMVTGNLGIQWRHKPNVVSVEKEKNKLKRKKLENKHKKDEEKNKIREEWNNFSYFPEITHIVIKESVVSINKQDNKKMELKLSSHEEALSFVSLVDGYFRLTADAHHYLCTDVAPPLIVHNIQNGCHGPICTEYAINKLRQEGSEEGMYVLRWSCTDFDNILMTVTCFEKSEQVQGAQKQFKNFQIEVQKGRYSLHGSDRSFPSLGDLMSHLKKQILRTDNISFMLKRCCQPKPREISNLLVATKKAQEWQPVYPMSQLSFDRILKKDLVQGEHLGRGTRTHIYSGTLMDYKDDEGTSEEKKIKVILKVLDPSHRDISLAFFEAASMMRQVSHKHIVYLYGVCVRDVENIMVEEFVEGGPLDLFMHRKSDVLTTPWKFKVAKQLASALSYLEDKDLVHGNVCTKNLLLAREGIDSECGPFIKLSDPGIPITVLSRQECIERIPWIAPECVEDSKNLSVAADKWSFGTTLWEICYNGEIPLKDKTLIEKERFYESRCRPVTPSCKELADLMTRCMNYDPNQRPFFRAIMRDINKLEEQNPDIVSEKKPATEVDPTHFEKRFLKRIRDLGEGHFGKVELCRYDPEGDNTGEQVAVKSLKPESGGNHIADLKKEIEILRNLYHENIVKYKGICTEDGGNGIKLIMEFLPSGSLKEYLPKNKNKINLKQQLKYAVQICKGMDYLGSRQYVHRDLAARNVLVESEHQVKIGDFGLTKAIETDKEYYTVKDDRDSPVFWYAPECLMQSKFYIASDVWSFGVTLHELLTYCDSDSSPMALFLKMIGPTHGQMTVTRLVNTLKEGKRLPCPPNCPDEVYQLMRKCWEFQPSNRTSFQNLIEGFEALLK
Description: as §2

JAK2 = biological target: T11, JAK2 (Homo sapiens, UniProt O60674); experiment: as above; format: biochemical; details: inhibitor concentration 0.01 μM
T11 construct: purchased Carna Biosciences
Description: as §2

JAK3 = biological target: T12, JAK3 (Homo sapiens, UniProt P52333); experiment: as above; format: biochemical; details: inhibitor concentration 0.01 μM
T12 construct: purchased Carna Biosciences
T12 sequence (P52333 1-1124): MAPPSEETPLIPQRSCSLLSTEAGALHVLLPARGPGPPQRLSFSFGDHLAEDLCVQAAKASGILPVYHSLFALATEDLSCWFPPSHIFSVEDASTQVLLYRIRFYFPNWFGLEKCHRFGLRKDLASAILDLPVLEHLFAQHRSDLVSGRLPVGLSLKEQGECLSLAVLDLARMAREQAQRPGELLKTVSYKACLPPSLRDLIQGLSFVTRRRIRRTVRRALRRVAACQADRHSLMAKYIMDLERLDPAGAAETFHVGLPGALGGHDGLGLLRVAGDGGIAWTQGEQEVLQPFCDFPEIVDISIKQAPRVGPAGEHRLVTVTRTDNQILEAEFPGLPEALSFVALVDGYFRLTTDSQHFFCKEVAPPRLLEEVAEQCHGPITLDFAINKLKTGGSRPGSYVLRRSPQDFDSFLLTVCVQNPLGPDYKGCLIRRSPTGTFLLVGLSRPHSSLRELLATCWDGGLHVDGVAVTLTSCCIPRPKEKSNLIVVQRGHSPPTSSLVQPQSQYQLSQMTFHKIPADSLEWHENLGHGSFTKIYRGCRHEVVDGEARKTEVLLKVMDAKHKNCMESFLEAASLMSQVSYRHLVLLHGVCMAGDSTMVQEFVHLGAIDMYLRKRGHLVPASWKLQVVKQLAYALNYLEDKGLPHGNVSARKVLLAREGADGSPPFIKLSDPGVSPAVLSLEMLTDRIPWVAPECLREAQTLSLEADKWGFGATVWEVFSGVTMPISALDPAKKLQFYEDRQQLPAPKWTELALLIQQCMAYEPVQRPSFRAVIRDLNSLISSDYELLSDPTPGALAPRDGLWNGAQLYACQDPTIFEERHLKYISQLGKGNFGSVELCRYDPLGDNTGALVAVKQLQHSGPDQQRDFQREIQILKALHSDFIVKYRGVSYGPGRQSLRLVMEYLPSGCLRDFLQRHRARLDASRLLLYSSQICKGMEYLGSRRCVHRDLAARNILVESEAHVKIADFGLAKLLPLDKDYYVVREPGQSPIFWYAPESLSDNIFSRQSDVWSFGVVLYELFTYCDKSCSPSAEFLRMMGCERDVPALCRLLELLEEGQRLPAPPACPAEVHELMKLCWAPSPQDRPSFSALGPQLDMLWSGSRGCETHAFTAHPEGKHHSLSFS
Description: as §2

KIT(D816V) = biological target: T13, KIT(D816V) (Homo sapiens, UniProt P10721, D816V); experiment: as above; format: biochemical; details: inhibitor concentration 0.01 μM
T13 construct: purchased Carna Biosciences
T13 sequence (P10721 26-976 D816V): as the sequence (P10721 26-976 V560G) above, with G535V, D791V counted along it
Description: as §2

FGR = biological target: T14, FGR (Homo sapiens, UniProt P09769); experiment: as above; format: biochemical; details: inhibitor concentration 0.01 μM
T14 construct: purchased Carna Biosciences
Description: as §2

BRAF = biological target: T15, BRAF (Homo sapiens, UniProt P15056); experiment: as above; format: biochemical; details: inhibitor concentration 0.01 μM
T15 construct: purchased Carna Biosciences
Description: as §2

LCK = biological target: T16, LCK (Homo sapiens, UniProt P06239); experiment: as above; format: biochemical; details: inhibitor concentration 0.01 μM
T16 construct: purchased Carna Biosciences
Description: as §2

SRM = biological target: T17, SRM (Homo sapiens, UniProt Q9H3Y6); experiment: as above; format: biochemical; details: inhibitor concentration 0.01 μM
T17 construct: purchased Carna Biosciences
Description: as §2

KIT(T670I) = biological target: T18, KIT(T670I) (Homo sapiens, UniProt P10721, T670I); experiment: as above; format: biochemical; details: inhibitor concentration 0.01 μM
T18 construct: purchased Carna Biosciences
T18 sequence (P10721 26-976 T670I): as the sequence (P10721 26-976 V560G) above, with G535V, T645I counted along it
Description: as §2

PDGFRβ = biological target: T19, PDGFRβ (Homo sapiens, UniProt P09619); experiment: as above; format: biochemical; details: inhibitor concentration 0.01 μM
T19 construct: purchased Carna Biosciences
T19 sequence (P09619 33-1106): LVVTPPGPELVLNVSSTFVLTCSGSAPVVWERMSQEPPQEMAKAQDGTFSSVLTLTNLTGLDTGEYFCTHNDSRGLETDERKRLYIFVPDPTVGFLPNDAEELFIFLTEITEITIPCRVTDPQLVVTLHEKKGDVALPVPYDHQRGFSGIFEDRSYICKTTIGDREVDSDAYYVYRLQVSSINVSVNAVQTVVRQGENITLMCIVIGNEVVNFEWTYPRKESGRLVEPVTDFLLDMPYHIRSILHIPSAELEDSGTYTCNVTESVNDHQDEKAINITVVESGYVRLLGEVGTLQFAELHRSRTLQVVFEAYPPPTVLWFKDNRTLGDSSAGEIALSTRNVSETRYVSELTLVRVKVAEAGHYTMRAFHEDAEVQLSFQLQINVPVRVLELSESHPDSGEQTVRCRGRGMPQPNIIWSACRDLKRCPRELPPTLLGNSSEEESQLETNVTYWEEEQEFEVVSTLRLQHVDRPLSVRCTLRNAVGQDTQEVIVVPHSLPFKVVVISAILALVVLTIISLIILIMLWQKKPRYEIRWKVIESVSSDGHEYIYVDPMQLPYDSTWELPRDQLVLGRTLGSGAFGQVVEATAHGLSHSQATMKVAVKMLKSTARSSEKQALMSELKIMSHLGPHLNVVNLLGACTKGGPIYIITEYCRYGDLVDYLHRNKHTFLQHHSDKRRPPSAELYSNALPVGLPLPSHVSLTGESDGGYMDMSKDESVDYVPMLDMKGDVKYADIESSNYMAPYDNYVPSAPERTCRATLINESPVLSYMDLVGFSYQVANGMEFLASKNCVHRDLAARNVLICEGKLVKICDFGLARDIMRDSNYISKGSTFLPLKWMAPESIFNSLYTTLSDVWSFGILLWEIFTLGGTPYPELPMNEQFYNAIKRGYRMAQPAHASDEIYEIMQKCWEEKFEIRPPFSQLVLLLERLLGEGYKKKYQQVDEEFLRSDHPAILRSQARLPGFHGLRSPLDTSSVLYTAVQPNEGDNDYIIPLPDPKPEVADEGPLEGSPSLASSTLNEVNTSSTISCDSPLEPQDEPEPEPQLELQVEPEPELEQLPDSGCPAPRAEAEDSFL
Description: as §2

RAF1 = biological target: T20, RAF1 (Homo sapiens, UniProt P04049); experiment: as above; format: biochemical; details: inhibitor concentration 0.01 μM
T20 construct: purchased Carna Biosciences
Description: as §2

T1 sequence (P16234 24-1089 V561D): as the sequence (P16234 24-1089 T674I) above, with V538D, I651T counted along it

| SMILES | inhibition at 0.01 µM (PDGFRα(V561D)) | inhibition at 0.01 µM (PDGFRα(T674I)) | inhibition at 0.01 µM (PDGFRα(D842V)) | inhibition at 0.01 µM (BRK) | inhibition at 0.01 µM (SRC) | inhibition at 0.01 µM (BRAF(V600E)) | inhibition at 0.01 µM (PDGFRα) | inhibition at 0.01 µM (KIT(V560G)) | inhibition at 0.01 µM (KIT) | inhibition at 0.01 µM (JAK1) | inhibition at 0.01 µM (JAK2) | inhibition at 0.01 µM (JAK3) | inhibition at 0.01 µM (KIT(D816V)) | inhibition at 0.01 µM (FGR) | inhibition at 0.01 µM (BRAF) | inhibition at 0.01 µM (LCK) | inhibition at 0.01 µM (SRM) | inhibition at 0.01 µM (KIT(T670I)) | inhibition at 0.01 µM (PDGFRβ) | inhibition at 0.01 µM (RAF1) | further results |
| --- | --- | --- | --- | --- | --- | --- | --- | --- | --- | --- | --- | --- | --- | --- | --- | --- | --- | --- | --- | --- | --- |
| C/C=C/S(=O)(=O)Nc1ccc(F)c(C(=O)c2c[nH]c3ncc(-c4ccc(Cl)cc4)cc23)c1F [200-93a] | > 30% | > 30% | > 30% | > 30% | > 30% | > 30% | > 20% | > 30% | > 30% | > 30% | > 30% | > 30% | > 30% | > 30% | > 30% | > 30% | > 30% | > 30% | > 20% | > 30% | IC50 ([1]; 72 hours): > 20 µM |
| COCCCS(=O)(=O)Nc1ccc(F)c(C(=O)c2c[nH]c3ncc(-c4ccc(Cl)cc4)cc23)c1F [200-123, N-[3-[5-(4-chlorophenyl)pyrrolo[2,3-b]pyridine-3-carbonyl]-2,4-difluoro-phenyl]-3-methoxypropane-1-sulfonamide] | < 20% | < 20% | < 20% | > 20% | < 20% | > 20% | < 20% | < 20% | < 20% | < 20% | < 20% | < 20% | < 20% | < 20% | < 20% | > 20% | > 20% | < 20% | < 20% | > 20% | IC50 ([1]; Homo sapiens, T47D, 72 h): < 20 µM |
| COCCS(=O)(=O)Nc1ccc(F)c(C(=O)c2c[nH]c3ncc(-c4ccc(Cl)cc4)cc23)c1F [200-139, N-[3-[5-(4-chlorophenyl)pyrrolo[2,3-b]pyridine-3-carbonyl]-2,4-difluorophenyl]-2-methoxyethanesulfonamide] | < 20% | < 20% | < 20% | > 20% | < 20% | < 20% | > 20% | < 20% | < 20% | < 20% | < 20% | < 20% | < 20% | < 20% | < 20% | > 20% | > 20% | < 20% | < 20% | > 20% | IC50 ([1]; Homo sapiens, T47D, 72 h): < 20 µM |
| O=C(c1c(F)ccc(NS(=O)(=O)CCO)c1F)c1c[nH]c2ncc(-c3ccc(Cl)cc3)cc12 [200-149, N-[3-[5-(4-chlorophenyl)pyrrolo[2,3-b]pyridine-3-carbonyl]-2,4-difluorophenyl]-2-hydroxyethanesulfonamide] | – | – | – | – | – | – | – | – | – | – | – | – | – | – | – | – | – | – | – | – | IC50 ([1]; Homo sapiens, T47D, 72 hours): < 20 µM |
